According to patent US20230031406A1, “COMPOUNDS AND COMPOSITIONS FOR TREATING CONDITIONS ASSOCIATED WITH NLRP ACTIVITY” (Novartis AG, priority 2018, published 2023):

These compounds were tested on PMA-differentiated THP-1 cells (assay: IL-1β production in PMA-differentiated THP-1 cells stimulated with gramicidin (hTHP-1 assay containing 2% fetal bovine serum; Procedures 1 and 2)). Conditions: Homo sapiens, THP-1, Table B3; hTHP-1 assay, 2% fetal bovine serum; class symbols; read-out: IC50.
Format: cell-based, human
Summary of the method: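 Human monocytic THP-1 cells, matured overnight with PMA at 20 ng/ml, are seeded in low-serum (2% FBS) RPMI. Test compounds, at final concentrations from 100 down to 0.0017 μM, precede gramicidin (5 μM, 2 h) by one hour. Released IL-1β is then determined by HTRF.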
Work on `CO[C@H]1COc2c(S(N)(=O)=NC(=O)Nc3c(C)c(C(F)(F)F)nc4c3CCC4)cnn2C1` (single isomer, unassigned) [Example 656, (R) or (S)-(6R)-6-methoxy-N′-((3-methyl-2-(trifluoromethyl)-6,7-dihydro-5H-cyclopenta[b]pyridin-4-yl)carbamoyl)-6,7-dihydro-5H-pyrazolo[5,1-b][1,3] oxazine-3-sulfonimidamide] yielded an IC50 of 1000 to 5000 nM. `Cc1c(C(F)(F)F)nc2c(c1NC(=O)N=S(N)(=O)c1cnn3c1OCCC3)CCC2` (single isomer, unassigned) [Example 657, (R) or (S)-N′-((3-((3-2-(trifluoromethyl)-6,7-dihydro-5H-cyclopenta[b]pyridin-4-yl)carbamoyl)-6,7-dihydro-5H-pyrazolo[5,1-b][1,3]oxazine-3-sulfonimidamide] gave an IC50 of 1000 to 5000 nM. With `C[C@@H]1CCc2c1nc1c(c2NC(=O)N=[S@](N)(=O)c2cc([C@@H](C)O)cs2)CCC1` (single isomer, unassigned) [Example 661, (S)-4-((R) or (S)-1-hydroxyethyl)-N′-(((R)-3-methyl-1,2,3,5,6,7-hexahydrodicyclopenta[b,e]pyridin-8-yl)carbamoyl) thiophene-2-sulfonimidamide] the IC50 was 1000 to 5000 nM. For `C[C@H](O)c1csc([S@@](N)(=O)=NC(=O)Nc2c3c(nc4c2CC[C@H]4C)CCC3)c1` (single isomer, unassigned) [Example 662, (S)-4-((S) or (R)-1-hydroxyethyl)-N′-(((R)-3-methyl-1,2,3,5,6,7-hexahydrodicyclopenta[b,e]pyridin-8-yl)carbamoyl)thiophene-2-sulfonimidamide], the IC50 was 5000 to 30000 nM. `C[C@@H]1CCc2c1nc1c(c2NC(=O)N=[S@@](N)(=O)c2cc([C@@H](C)O)cs2)CCC1` (single isomer, unassigned) [Example 663, (R)-4-((R) or (S)-1-hydroxyethyl)-N′-(((R)-3-methyl-1,2,3,5,6,7-hexahydrodicyclopenta[b,e]pyridin-8-yl)carbamoyl) thiophene-2-sulfonimidamide] was tested, and the IC50 was 40 to 200 nM. `C[C@H](O)c1csc([S@](N)(=O)=NC(=O)Nc2c3c(nc4c2CC[C@H]4C)CCC3)c1` (single isomer, unassigned) [Example 664, (R)-4-((S) or (R)-1-hydroxyethyl)-N′-(((R)-3-methyl-1,2,3,5,6,7-hexahydrodicyclopenta[b,e]pyridin-8-yl)carbamoyl) thiophene-2-sulfonimidamide] was tested, and the IC50 was 40 to 200 nM. With `CC(C)(O)c1csc(S(N)(=O)=NC(=O)Nc2cc(C(F)(F)F)nc3c2CCC3)c1` (single isomer, unassigned) [Example 667, (R) or (S)-4-(2-hydroxypropan-2-yl)-N′-((2-(trifluoromethyl)-6,7-dihydro-5H-cyclopenta[b]pyridin-4-yl)carbamoyl)thiophene-2-sulfonimidamide] the IC50 was 1000 to 5000 nM.

Same assay, conditions: Homo sapiens, THP-1, Table B3; hTHP-1 assay, 2% fetal bovine serum; numeric values; read-out: IC50
`CO[C@H]1COc2c(S(N)(=O)=NC(=O)Nc3c(C)c(C(F)(F)F)nc4c3CCC4)cnn2C1` (single isomer, unassigned) [Example 655, (S) or (R)-(6R)-6-methoxy-N′-((3-methyl-2-(trifluoromethyl)-6,7-dihydro-5H-cyclopenta[b]pyridin-4-yl)carbamoyl)-6,7-dihydro-5H-pyrazolo[5,1-b][1,3] oxazine-3-sulfonimidamide] showed an IC50 greater than 30000 nM. `Cc1c(C(F)(F)F)nc2c(c1NC(=O)N=S(N)(=O)c1cnn3c1OCCC3)CCC2` (single isomer, unassigned) [Example 658, (S) or (R)-N′-((3-methyl-2-(trifluoromethyl)-6,7-dihydro-5H-cyclopenta[b]pyridin-4-yl)carbamoyl)-6,7-dihydro-5H-pyrazolo[5,1-b][1,3] oxazine-3-sulfonimidamide] was tested, and the IC50 was greater than 30000 nM. With `CC(C)(O)c1csc(S(N)(=O)=NC(=O)Nc2cc(C(F)(F)F)nc3c2CCC3)c1` (single isomer, unassigned) [Example 668, (S) or (R)-4-(2-hydroxypropan-2-yl)-N′-((2-(trifluoromethyl)-6,7-dihydro-5H-cyclopenta[b]pyridin-4-yl)carbamoyl)thiophene-2-sulfonimidamide] the IC50 was greater than 30000 nM.

Same assay, conditions: Table B3; hTHP-1 assay, 2% fetal bovine serum; class symbols; read-out: IC50
For `CCn1cc(F)c(S(N)(=O)=NC(=O)Nc2c(C)c(C(F)(F)F)nc3c2CCC3)n1` (single isomer, unassigned) [Example 649, (R) or (S)-1-ethyl-4-fluoro-N′-((3-methyl-2-(trifluoromethyl)-6,7-dihydro-5H-cyclopenta[b]pyridin-4-yl)carbamoyl)-1H-pyrazole-3-sulfonimidamide], the IC50 was 40 to 200 nM. `CCn1cc(F)c(S(N)(=O)=NC(=O)Nc2c(C)c(C(F)(F)F)nc3c2CCC3)n1` (single isomer, unassigned) [Example 650, (S) or (R)-1-ethyl-4-fluoro-N′-((3-methyl-2-(trifluoromethyl)-6,7-dihydro-5H-cyclopenta[b]pyridin-4-yl)carbamoyl)-1H-pyrazole-3-sulfonimidamide] was tested, and the IC50 was 1000 to 5000 nM. For `CC(C)(O)c1cc(F)c(S(N)(=O)=NC(=O)Nc2c3c(nc(C(F)(F)F)c2C2CC2)CCC3)s1` (single isomer, unassigned) [Example 659, (R) or (S)-N′-((3-cyclopropyl-2-(trifluoromethyl)-6,7-dihydro-5H-cyclopenta[b]pyridin-4-yl)carbamoyl)-3-fluoro-5-(2-hydroxypropan-2-yl) thiophene-2-sulfonimidamide], the IC50 was 200 to 1000 nM. `CC(C)(O)c1cc(F)c(S(N)(=O)=NC(=O)Nc2c3c(nc(C(F)(F)F)c2C2CC2)CCC3)s1` (single isomer, unassigned) [Example 660, (S) or (R)-N′-((3-cyclopropyl-2-(trifluoromethyl)-6,7-dihydro-5H-cyclopenta[b]pyridin-4-yl)carbamoyl)-3-fluoro-5-(2-hydroxypropan-2-yl) thiophene-2-sulfonimidamide] showed an IC50 of 5000 to 30000 nM. `CC(=O)c1csc(S(N)(=O)=NC(=O)Nc2c3c(nc4c2CC[C@H]4C)CCC3)c1` (single isomer, unassigned) [Example 665, (R) or (S)-4-acetyl-N′-(((R)-3-methyl-1,2,3,5,6,7-hexahydrodicyclopenta[b,e]pyridin-8-yl)carbamoyl)thiophene-2-sulfonimidamide] showed an IC50 of 200 to 1000 nM. `CC(=O)c1csc(S(N)(=O)=NC(=O)Nc2c3c(nc4c2CC[C@H]4C)CCC3)c1` (single isomer, unassigned) [Example 666, (S) or (R)-4-acetyl-N′-(((R)-3-methyl-1,2,3,5,6,7-hexahydrodicyclopenta[b,e]pyridin-8-yl)carbamoyl)thiophene-2-sulfonimidamide] showed an IC50 of 5000 to 30000 nM. For `CCn1cc(F)c(S(N)(=O)=NC(=O)Nc2c3c(nc4c2CC[C@H]4C)CCC3)n1` (single isomer, unassigned) [Example 669, (R) or (S)-1-ethyl-4-fluoro-N′-(((R)-3-methyl-1,2,3,5,6,7-hexahydrodicyclopenta[b,e]pyridin-8-yl)carbamoyl)-1H-pyrazole-3-sulfonimidamide], the IC50 was 8 to 40 nM. Compound `CCn1cc(F)c(S(N)(=O)=NC(=O)Nc2c3c(nc4c2CC[C@H]4C)CCC3)n1` (single isomer, unassigned) [Example 670, (S) or (R)-1-ethyl-4-fluoro-N′-(((R)-3-methyl-1,2,3,5,6,7-hexahydrodicyclopenta[b,e]pyridin-8-yl)carbamoyl)-1H-pyrazole-3-sulfonimidamide] has an IC50 of 1000 to 5000 nM. In the case of `CCn1cc(F)c(S(N)(=O)=NC(=O)Nc2c3c(nc4c2CCC42CC2)CCC3)n1` (single isomer, unassigned) [Example 671, (R) or (S)-1-ethyl-4-fluoro-N′-((1′,5′,6′,7′-tetrahydro-2′H-spiro[cyclopropane-1,3′-dicyclopenta[b,e]pyridin]-8′-yl)carbamoyl)-1H-pyrazole-3-sulfonimidamide], the IC50 is reported as 8 to 40 nM. Compound `CCn1cc(F)c(S(N)(=O)=NC(=O)Nc2c3c(nc4c2CCC42CC2)CCC3)n1` (single isomer, unassigned) [Example 672, (S) or (R)-1-ethyl-4-fluoro-N′-((1′,5′,6′,7′-tetrahydro-2′H-spiro[cyclopropane-1,3'-dicyclopenta[b,e]pyridin]-8′-yl)carbamoyl)-1H-pyrazole-3-sulfonimidamide] has an IC50 of 1000 to 5000 nM. Work on `CCc1ncc(S(N)(=O)=NC(=O)Nc2c3c(nc4c2CC[C@H]4C)CCC3)s1` (single isomer, unassigned) [Example 673, (S) or (R)-2-ethyl-N′-(((R)-3-methyl-1,2,3,5,6,7-hexahydrodicyclopenta[b,e]pyridin-8-yl)carbamoyl) thiazole-5-sulfonimidamide] yielded an IC50 of 5000 to 30000 nM. `CCc1ncc(S(N)(=O)=NC(=O)Nc2c3c(nc4c2CC[C@H]4C)CCC3)s1` (single isomer, unassigned) [Example 674, (R) or (S)-2-ethyl-N′-(((R)-3-methyl-1,2,3,5,6,7-hexahydrodicyclopenta[b,e]pyridin-8-yl)carbamoyl) thiazole-5-sulfonimidamide] gave an IC50 of 200 to 1000 nM. In the case of `C[C@@H]1CCc2c1nc1c(c2NC(=O)N=S(N)(=O)c2nn(C(F)F)cc2F)CCC1` (single isomer, unassigned) [Example 679, (R) or (S)-1-(difluoromethyl)-4-fluoro-N′-(((R)-3-methyl-1,2,3,5,6,7-hexahydrodicyclopenta[b,e]pyridin-8-yl)carbamoyl)-1H-pyrazole-3-sulfonimidamide], the IC50 is reported as 40 to 200 nM. Work on `C[C@@H]1CCc2c1nc1c(c2NC(=O)N=S(N)(=O)c2nn(C(F)F)cc2F)CCC1` (single isomer, unassigned) [Example 680, (S) or (R)-1-(difluoromethyl)-4-fluoro-N′-(((R)-3-methyl-1,2,3,5,6,7-hexahydrodicyclopenta[b,e]pyridin-8-yl)carbamoyl)-1H-pyrazole-3-sulfonimidamide] yielded an IC50 of 5000 to 30000 nM.
